Data on two molecules can be found in patent US20250314638A1, “OBLIQUE LINE SCANNER SYSTEMS AND METHODS FOR HIGH THROUGHPUT SINGLE MOLECULE TRACKING IN LIVING CELLS” (EIKON THERAPEUTICS, INC., priority 2022, published 2025).

The test system of this assay is Halo-PCNA U2OS cells. Description: Cell cycle block validated by machine-learning cell cycle phase assignment in Halo-PCNA cells. The conditions noted are these: 2 mM Thymidine (S-phase block) or (G2-M block). In kind it is cell-based. The procedure: Time-lapse microscopy was conducted on Halo-PCNA labeled with 50 nM JFX650, to achieve near-saturating labeling, for 12 hours at 12 frames per hour (FIG. 21A). A machine learning model was then trained using both manually assigned cell stages and time-based progression resulting in both a G1, early S, mid S, late S, G2 and mitosis classifier as well as a regression prediction across the continuum of the cell cycle (FIG. 21B). The predicted cell cycle classification performed well as compared to manual annotation (FIG. 21C). Clear progression of individual cells through the cell cycle was observed when regression prediction was plotted across the time series (FIG. 21D). […] When cells in each cell phase were analyzed separately, it became apparent that the slow-moving population of PCNA was exclusively found in cell predicted to be in S-phase and that there was a marked decrease in the fast-moving population (FIG. 20E). Mean diffusion coefficient of PCNA was then measured for 4,081 individual cells to characterize heterogeneity across the cell population, which is described in large part by cell cycle (FIG. 20F).
Cell cycle as provided above can be automatically determined using an image (e.g., an image of JF549-labeled PCNA). […]

Structures are written as SMILES.

For `O=C1NC(=NCc2cccs2)S/C1=C\c1ccc2ncccc2c1` [RO-3306], the “fraction of cells assigned to cell cycle phases” value was “expected enrichment in the fraction of cells assigned to the respective cell phases”.

Consider `Cc1cn([C@H]2C[C@H](O)[C@@H](CO)O2)c(=O)[nH]c1=O` [thymidine], for which the “fraction of cells assigned to cell cycle phases” value was “expected enrichment in the fraction of cells assigned to the respective cell phases”.
